Test results: BindingDB's records for doi:10.7270/Q27P8WVP (Nmmlsc, 2010)

Target: Regulator of G-protein signaling 4 (Homo sapiens, UniProt P49798)
Assay: small molecules altering RGS4 interaction with Galphao – biochemical, multiplexed bead flow cytometry, SAR compounds, SAR follow-up (AID 2295)

Sequence of Regulator of G-protein signaling 4 (P49798 whole entry): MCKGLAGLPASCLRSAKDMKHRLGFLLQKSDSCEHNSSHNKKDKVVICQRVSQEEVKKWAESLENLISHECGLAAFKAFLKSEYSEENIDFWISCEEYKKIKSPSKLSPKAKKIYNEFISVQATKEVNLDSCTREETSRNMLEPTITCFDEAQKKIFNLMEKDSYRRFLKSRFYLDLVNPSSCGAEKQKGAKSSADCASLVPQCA

Ki: 1020 nM
Compound: NS(=O)(=O)c1ccc(N=NCc2ccc(O)c(O)c2O)c([N+](=O)[O-])c1 [4-[[(E)-(2,3-dihydroxy-4-oxo-1-cyclohexa-2,5-dienylidene)methyl]hydrazo]-3-nitrobenzenesulfonamide]
